Results: ChEMBL document CHEMBL4382217 (Bioorg Med Chem, 2018)
Each block holds one compound with its values, some of them ahead of it.

Tests used:
NCI-H1975 [1] = assay: Antiproliferative activity against human NCI-H1975 cells harboring EGFR T790M/L858R double mutant after 72 hrs by MTS assay; format: functional, cell-based
[2] = (§1) Antiproliferative activity against human A431 cells harboring WT EGFR after 72 hrs by MTS assay; format: cell-based, A-431; conditions: human, A431 cells harboring WT EGFR
[3] = Selectivity index, ratio of GI50 for human A431 cells harboring WT EGFR to GI50 for human NCI-H1975 cells harboring EGFR T790M/L858R double mutant
[4] = Toxicity in castrated nude mouse xenografted with human PC9 cells assessed as body weight loss at 10 mg/kg, po daily for 14 consecutive days relative to control; format: organism-based; conditions: in vivo
Calu-6 = assay: Antiproliferative activity against human Calu6 cells harboring WT EGFR after 72 hrs by MTS assay; format: cell-based; conditions: Calu-6, 72 h
Calu-3 = assay: Antiproliferative activity against human Calu3 cells harboring WT EGFR after 72 hrs by MTS assay; format: cell-based; conditions: Calu-3, 72 h
NCI-H1975 [5] = assay: Antitumor activity against human NCI-H1975 cells harboring EGFR T790M/L858R double mutant xenografted in castrated nude mouse assessed as tumor growth inhibition at 20 mg/kg, po daily for 14 consecutive days measured on day 15 relative to control; format: functional
PC-9 [6] = assay: Antitumor activity against human PC9 cells harboring EGFR exon-19 del mutant xenografted in castrated nude mouse assessed as tumor growth inhibition at 10 mg/kg, po daily for 14 consecutive days measured on day 15 relative to control; format: functional
[7] = Toxicity in castrated nude mouse xenografted with human HCC827 cells assessed as body weight loss at 10 mg/kg, po daily for 14 consecutive days relative to control; format: organism-based; conditions: in vivo
PC-9 [8] = assay: Antiproliferative activity against human PC9 cells harboring EGFR mutant after 72 hrs by MTS assay; format: functional, cell-based; conditions: PC-9, 72 h
HCC827 [9] = assay: Antitumor activity against human HCC827 cells harboring EGFR exon-19 del mutant xenografted in castrated nude mouse assessed as tumor growth inhibition at 10 mg/kg, po daily for 14 consecutive days measured on day 15 relative to control; format: functional
HCC827 [10] = assay: Antiproliferative activity against human HCC827 cells harboring EGFR mutant after 72 hrs by MTS assay; format: functional, cell-based; conditions: HCC827, 72 h
[11] = Half life in po dosed mouse; format: ADME, organism-based; conditions: in vivo
[12] = Toxicity in castrated nude mouse xenografted with human NCI-H1975 cells assessed as body weight loss at 20 mg/kg, po daily for 14 consecutive days relative to control; format: organism-based; conditions: in vivo
Homo sapiens = species: Homo sapiens; assay: Selectivity index, ratio of IC50 for recombinant human N-terminal GST-tagged EGFR (696-end residues) expressed in baculovirus expression system to IC50 for recombinant human N-terminal GST-tagged EGFR T790M/L858R double mutant (696-end residues)
A-431 = assay: as §1; format: cell-based; conditions: Homo sapiens, A-431, 72 h
[13] = Drug level in human liver microsomes treated with N-(2-((2-(Dimethylamino)ethyl)(methyl)amino)-4-methoxy-5-((4-(1-methyl-1H-pyrrolo[3,2-b]pyridin-3-yl)pyrimidin-2-yl)amino)phenyl)acrylamide by LC-MS/MS analysis; format: ADME, Microsome
[14] = target: Epidermal growth factor receptor (Homo sapiens, UniProt P00533, L858R); assay: Inhibition of recombinant human GST-tagged EGFR L858R mutant expressed in baculovirus expression system by fluorescence assay
[15] = target: Epidermal growth factor receptor (Homo sapiens, UniProt P00533); assay: Inhibition of recombinant human N-terminal GST-tagged EGFR (696-end residues) expressed in baculovirus expression system using Srctide as substrate by fluorescence assay
[16] = target: Epidermal growth factor receptor (Homo sapiens, UniProt P00533, L858R/T790M); assay: Inhibition of recombinant human N-terminal GST-tagged EGFR T790M/L858R double mutant (696-end residues) by fluorescence assay
Sequence of Epidermal growth factor receptor (Homo sapiens, UniProt P00533, L858R/T790M) (P00533 25-1210 T790M/L858R limits assumed): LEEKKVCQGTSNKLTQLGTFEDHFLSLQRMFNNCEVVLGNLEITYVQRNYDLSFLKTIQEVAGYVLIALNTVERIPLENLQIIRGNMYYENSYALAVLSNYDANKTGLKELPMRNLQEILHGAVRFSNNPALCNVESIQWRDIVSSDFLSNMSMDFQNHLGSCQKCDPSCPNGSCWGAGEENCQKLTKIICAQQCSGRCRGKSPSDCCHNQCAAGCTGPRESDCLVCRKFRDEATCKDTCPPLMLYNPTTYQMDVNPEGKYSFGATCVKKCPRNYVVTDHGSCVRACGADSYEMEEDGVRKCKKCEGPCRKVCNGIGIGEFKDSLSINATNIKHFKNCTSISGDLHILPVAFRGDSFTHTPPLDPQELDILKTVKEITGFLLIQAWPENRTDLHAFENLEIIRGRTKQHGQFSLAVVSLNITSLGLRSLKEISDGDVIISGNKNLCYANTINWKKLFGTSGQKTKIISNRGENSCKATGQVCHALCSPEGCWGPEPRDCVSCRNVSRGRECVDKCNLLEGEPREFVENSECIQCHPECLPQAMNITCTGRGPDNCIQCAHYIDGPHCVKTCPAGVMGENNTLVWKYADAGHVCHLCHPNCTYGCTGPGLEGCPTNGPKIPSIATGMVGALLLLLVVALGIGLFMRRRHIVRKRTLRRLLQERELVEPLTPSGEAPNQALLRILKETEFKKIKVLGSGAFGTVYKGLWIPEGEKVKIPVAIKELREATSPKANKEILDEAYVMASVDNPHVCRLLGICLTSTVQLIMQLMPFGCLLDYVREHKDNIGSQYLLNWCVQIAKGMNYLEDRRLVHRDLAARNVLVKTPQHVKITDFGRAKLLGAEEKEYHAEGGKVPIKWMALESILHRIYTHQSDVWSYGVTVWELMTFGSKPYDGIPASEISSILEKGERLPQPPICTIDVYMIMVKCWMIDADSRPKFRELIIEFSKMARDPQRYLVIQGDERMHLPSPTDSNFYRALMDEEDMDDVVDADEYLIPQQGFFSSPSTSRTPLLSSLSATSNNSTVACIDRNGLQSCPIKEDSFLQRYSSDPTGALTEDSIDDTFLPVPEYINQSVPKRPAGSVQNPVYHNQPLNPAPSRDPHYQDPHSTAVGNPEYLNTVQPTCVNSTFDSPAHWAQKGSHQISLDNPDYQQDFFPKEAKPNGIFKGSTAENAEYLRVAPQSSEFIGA

Sequence of Epidermal growth factor receptor (Homo sapiens, UniProt P00533) (P00533 whole entry): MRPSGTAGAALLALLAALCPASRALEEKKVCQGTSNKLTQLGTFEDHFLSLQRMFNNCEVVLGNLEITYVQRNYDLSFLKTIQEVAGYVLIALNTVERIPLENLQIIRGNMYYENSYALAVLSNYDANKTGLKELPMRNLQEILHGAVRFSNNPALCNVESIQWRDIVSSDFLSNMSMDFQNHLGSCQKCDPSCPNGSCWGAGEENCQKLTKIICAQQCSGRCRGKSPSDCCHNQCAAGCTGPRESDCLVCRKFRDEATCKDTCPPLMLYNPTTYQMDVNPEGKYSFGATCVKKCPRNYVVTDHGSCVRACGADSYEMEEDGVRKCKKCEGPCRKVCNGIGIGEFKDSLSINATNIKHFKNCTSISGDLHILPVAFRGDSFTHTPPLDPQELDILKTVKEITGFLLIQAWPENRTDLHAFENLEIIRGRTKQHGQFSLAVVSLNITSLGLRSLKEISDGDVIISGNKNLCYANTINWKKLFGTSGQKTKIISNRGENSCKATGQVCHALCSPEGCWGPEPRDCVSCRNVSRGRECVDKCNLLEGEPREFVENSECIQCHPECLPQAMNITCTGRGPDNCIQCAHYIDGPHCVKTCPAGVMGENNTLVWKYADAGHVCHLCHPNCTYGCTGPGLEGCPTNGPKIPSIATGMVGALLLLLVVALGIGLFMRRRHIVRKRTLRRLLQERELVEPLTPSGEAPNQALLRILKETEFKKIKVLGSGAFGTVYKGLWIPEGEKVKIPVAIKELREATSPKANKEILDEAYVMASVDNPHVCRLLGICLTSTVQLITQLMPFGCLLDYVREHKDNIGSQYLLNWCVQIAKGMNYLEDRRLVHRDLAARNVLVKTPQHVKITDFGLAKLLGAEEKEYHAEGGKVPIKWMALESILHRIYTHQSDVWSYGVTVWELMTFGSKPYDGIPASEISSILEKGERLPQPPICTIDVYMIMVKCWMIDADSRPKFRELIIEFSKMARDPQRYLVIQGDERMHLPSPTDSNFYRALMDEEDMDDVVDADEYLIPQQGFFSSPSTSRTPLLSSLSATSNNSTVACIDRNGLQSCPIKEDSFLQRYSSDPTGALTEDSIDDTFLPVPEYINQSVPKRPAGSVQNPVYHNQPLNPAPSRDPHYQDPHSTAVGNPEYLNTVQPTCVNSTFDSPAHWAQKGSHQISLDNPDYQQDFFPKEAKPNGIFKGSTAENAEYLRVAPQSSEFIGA
Sequence of Epidermal growth factor receptor (Homo sapiens, UniProt P00533, L858R) (P00533 25-1210 L858R limits assumed): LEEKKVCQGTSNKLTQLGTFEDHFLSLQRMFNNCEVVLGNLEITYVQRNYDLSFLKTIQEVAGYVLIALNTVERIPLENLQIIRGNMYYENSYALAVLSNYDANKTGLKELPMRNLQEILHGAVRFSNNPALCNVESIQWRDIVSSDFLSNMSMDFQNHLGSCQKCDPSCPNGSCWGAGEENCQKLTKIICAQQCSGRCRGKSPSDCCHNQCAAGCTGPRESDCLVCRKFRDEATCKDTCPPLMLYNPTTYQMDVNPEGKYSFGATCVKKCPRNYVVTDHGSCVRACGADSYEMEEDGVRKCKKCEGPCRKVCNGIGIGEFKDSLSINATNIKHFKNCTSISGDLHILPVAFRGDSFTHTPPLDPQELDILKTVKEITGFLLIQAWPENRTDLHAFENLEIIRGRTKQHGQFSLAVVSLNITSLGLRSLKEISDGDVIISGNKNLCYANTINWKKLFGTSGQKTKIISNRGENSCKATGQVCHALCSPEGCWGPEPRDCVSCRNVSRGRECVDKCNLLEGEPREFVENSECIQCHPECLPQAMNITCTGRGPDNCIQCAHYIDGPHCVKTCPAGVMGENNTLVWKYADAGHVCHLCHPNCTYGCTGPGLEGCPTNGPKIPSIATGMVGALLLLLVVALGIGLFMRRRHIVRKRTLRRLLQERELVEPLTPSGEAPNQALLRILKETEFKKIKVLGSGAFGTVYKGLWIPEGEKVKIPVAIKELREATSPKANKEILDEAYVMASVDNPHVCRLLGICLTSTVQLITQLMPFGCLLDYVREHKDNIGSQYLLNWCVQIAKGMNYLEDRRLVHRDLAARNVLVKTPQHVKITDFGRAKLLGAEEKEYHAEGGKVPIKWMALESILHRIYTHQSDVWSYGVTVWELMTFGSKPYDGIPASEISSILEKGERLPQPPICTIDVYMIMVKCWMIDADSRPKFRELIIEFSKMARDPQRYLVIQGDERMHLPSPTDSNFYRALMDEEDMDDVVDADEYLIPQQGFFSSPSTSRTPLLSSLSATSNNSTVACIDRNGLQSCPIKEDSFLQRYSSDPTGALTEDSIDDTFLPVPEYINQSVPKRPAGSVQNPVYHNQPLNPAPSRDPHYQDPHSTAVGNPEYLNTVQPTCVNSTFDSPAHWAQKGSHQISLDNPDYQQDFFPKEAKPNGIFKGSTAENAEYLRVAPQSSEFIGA

SMILES: C=CC(=O)Nc1cc(Nc2nccc(-c3nn(C)c4ccsc34)n2)c(OC(F)F)cc1N1CCN(C)CC1
GI50 (NCI-H1975 [1]; Homo sapiens, NCI-H1975, 72 h): 296 nM
GI50 at 72 h [2]: 1130 nM
RatioGI50 [3]: 3.8

SMILES: C=CC(=O)Nc1cc(Nc2nccc(-c3cn(C)c4ccccc34)n2)c(OC)cc1N(C)CCN(C)C [OSIMERTINIB]
Activity [4]: 8%
IC50 (Calu-6): 5.86 µM
TGI (NCI-H1975 [5]): 107%
TGI (PC-9 [6]): 106%
Activity [7]: 8%
IC50 (PC-9 [8]): 160 nM
TGI (HCC827 [9]): 121%
Activity [12]: <= 15%

SMILES: C=CC(=O)Nc1cc(Nc2nccc(-c3cn(C)c4cccnc34)n2)c(OC)cc1N(C)CCNC
IC50 (Calu-6): > 10 µM
IC50 (Calu-3): > 10000 nM
Ratio IC50 (Homo sapiens): 42
IC50 (NCI-H1975 [1]; Homo sapiens, NCI-H1975, 72 h): 270 nM
IC50 (A-431): 3.47 µM
IC50 (PC-9 [8]): 330 nM
Drug metabolism [13]: Metabolite_Detected
IC50 (HCC827 [10]): 42 nM
IC50 [14]: 12 µM
IC50 [15]: 277 µM
IC50 [16]: 6.6 µM

SMILES: C=CC(=O)Nc1cc(Nc2nccc(-c3noc4ccccc34)n2)c(OC(F)F)cc1N(C)CCN(C)C
GI50 (NCI-H1975 [1]; Homo sapiens, NCI-H1975, 72 h): 4 nM
GI50 at 72 h [2]: 89.1 nM
RatioGI50 [3]: 22.3

SMILES: C=CC(=O)Nc1cc(Nc2nccc(-c3noc4ccccc34)n2)c(OC(F)F)cc1N1CCN(C)CC1
GI50 (NCI-H1975 [1]; Homo sapiens, NCI-H1975, 72 h): 49 nM
GI50 at 72 h [2]: 1720 nM
RatioGI50 [3]: 35.1

Now from value to compound, other results behind:

GI50 (NCI-H1975 [1]; Homo sapiens, NCI-H1975, 72 h): 7.3 nM
SMILES: C=CC(=O)Nc1cc(Nc2nccc(-c3noc4ccccc34)n2)c(OC)cc1N(C)CCN(C)C
GI50 at 72 h [2]: 110 nM
RatioGI50 [3]: 15.1

GI50 (NCI-H1975 [1]; Homo sapiens, NCI-H1975, 72 h): 285 nM
SMILES: C=CC(=O)Nc1cc(Nc2nccc(-c3noc4ccccc34)n2)c(OC(F)F)cc1N1CCC[C@H]1CN(C)C
GI50 at 72 h [2]: 1000 nM
RatioGI50 [3]: 3.5

GI50 (NCI-H1975 [1]; Homo sapiens, NCI-H1975, 72 h): 2880 nM
SMILES: C=CC(=O)Nc1cc(Nc2nccc(-c3cn(C)c4cccnc34)n2)c(OC)cc1N1CCC[C@H]1CN(C)C
GI50 at 72 h [2]: 2100 nM
RatioGI50 [3]: 0.7

GI50 (NCI-H1975 [1]; Homo sapiens, NCI-H1975, 72 h): 184 nM
SMILES: C=CC(=O)Nc1cc(Nc2nccc(-c3cn(C)c4cccnc34)n2)c(OC(F)F)cc1N1CCC[C@H]1CN(C)C
GI50 at 72 h [2]: 724 nM
RatioGI50 [3]: 3.9
